{"source": "patent US20250032658A1", "about": "“SYSTEMS AND METHODS FOR NEUTRALIZATION OF AIRBORNE ALLERGENS WITH ORGANIC ACIDS” (The Clorox Company, priority 2023, published 2025)", "key": {"[1]": {"details": "room temperature and standard pressure; cited from earlier work"}, "[2]": {"details": "cited from earlier work"}, "[3]": {"test": "pKa / acid form of lactic acid", "format": "physicochemical", "details": "at a pH of 2.2", "source_text": "In some example embodiments, the pH of the anti-allergen formulations can be kept low. A low pH can enhance the organic acid efficacy (e.g., lactic acid efficacy) in neutralization of airborne allergens. Typically, pH is kept a least 1 unit below pKa of the organic acid to ensure majority (at least 90%) of acid stays in the active (conjugate acid) form. […]."}}, "note": "Where two headings read alike, the source gives them in different places.", "data": [{"smiles": "CC(=O)C(=O)O", "note": "[pyruvic acid]", "values": [{"measurement": "Vapor Pressure", "setting": "[1]", "result": 172, "unit": "Pa"}, {"measurement": "Solubility in water", "setting": "[2]; at ~20° C.", "result": "100 g of compound in 100 g of water"}]}, {"smiles": "O=C(O)c1ccccc1", "note": "[benzoic acid]", "values": [{"measurement": "Vapor Pressure", "setting": "[1]", "result": 0.11, "unit": "Pa"}]}, {"smiles": "O=C(O)CO", "note": "[glycolic acid]", "values": [{"measurement": "Vapor Pressure", "setting": "[1]", "result": 0.41, "unit": "Pa"}]}, {"smiles": "CC(=O)O", "note": "[acetic acid]", "values": [{"measurement": "Vapor Pressure", "setting": "[1]", "result": 2080, "unit": "Pa"}]}, {"smiles": "CC(=O)CCC(=O)O", "note": "[levulinic acid]", "values": [{"measurement": "Vapor Pressure", "setting": "[1]", "result": 0.374, "unit": "Pa"}, {"measurement": "Solubility in water", "setting": "[2]; at ~20° C.", "result": "79.13 g of compound in 100 g of water"}]}, {"smiles": "O=C(O)CCCCC(=O)O", "note": "[adipic acid]", "values": [{"measurement": "Vapor Pressure", "setting": "[1]", "result": 9.70, "unit": "Pa"}]}, {"smiles": "CS(=O)(=O)O", "note": "[methane sulfonic acid]", "values": [{"measurement": "Vapor Pressure", "setting": "[1]", "result": 0.048, "unit": "Pa"}, {"measurement": "Solubility in water", "setting": "[2]; at ~20° C.", "result": "100 g of compound in 100 g of water"}]}, {"smiles": "CCCCCCC(=O)O", "note": "[heptanoic acid]", "values": [{"measurement": "Vapor Pressure", "setting": "[1]", "result": 1.35, "unit": "Pa"}, {"measurement": "Solubility in water", "setting": "[2]; at ~20° C.", "result": "0.2 g of compound in 100 g of water"}]}, {"smiles": "CCC(=O)O", "note": "[propionic acid]", "values": [{"measurement": "Vapor Pressure", "setting": "[1]", "result": 390, "unit": "Pa"}]}, {"smiles": "O=C(O)/C=C\\C(=O)O", "note": "[maleic acid]", "values": [{"measurement": "Solubility in water", "setting": "[2]; at ~20° C.", "result": "47.88 g of compound in 100 g of water"}]}, {"smiles": "O=C(O)CC(O)C(=O)O", "note": "(stereo not drawn) [malic acid]", "values": [{"measurement": "Vapor Pressure", "setting": "[1]", "result": 0.000004, "unit": "Pa"}, {"measurement": "Solubility in water", "setting": "[2]; at ~20° C.", "result": "64.7 g of compound in 100 g of water"}]}, {"smiles": "CC(O)C(=O)O", "note": "(stereo not drawn) [lactic acid]", "values": [{"measurement": "Vapor Pressure", "setting": "[1]", "result": 10.00, "unit": "Pa"}, {"measurement": "lactic acid in the acidic form", "setting": "[3]", "result": "at least 95%"}]}, {"smiles": "CCCC(=O)O", "note": "[butyric acid]", "values": [{"measurement": "Vapor Pressure", "setting": "[1]", "result": 100, "unit": "Pa"}]}, {"smiles": "CCCCC(=O)O", "note": "[valeric acid]", "values": [{"measurement": "Vapor Pressure", "setting": "[1]", "result": 100, "unit": "Pa"}, {"measurement": "Solubility in water", "setting": "[2]; at ~20° C.", "result": "3.75 g of compound in 100 g of water"}]}, {"smiles": "O=C(O)CC(O)(CC(=O)O)C(=O)O", "note": "[citric acid]", "values": [{"measurement": "Vapor Pressure", "setting": "[1]", "result": 0.000002, "unit": "Pa"}]}, {"smiles": "CCCCCCCC(=O)O", "note": "[octanoic acid]", "values": [{"measurement": "Vapor Pressure", "setting": "[1]", "result": 0.49, "unit": "Pa"}]}, {"smiles": "CCCCCC(=O)O", "note": "[hexanoic acid]", "values": [{"measurement": "Vapor Pressure", "setting": "[1]", "result": 5.80, "unit": "Pa"}, {"measurement": "Solubility in water", "setting": "[2]", "result": "1.03 g of compound in 100 g of water"}]}, {"smiles": "O=C(O)CC(=O)O", "note": "[malonic acid]", "values": [{"measurement": "Vapor Pressure", "setting": "[1]", "result": 0.00049, "unit": "Pa"}]}, {"smiles": "O=C(O)/C=C/C(=O)O", "note": "[fumaric acid]", "values": [{"measurement": "Solubility in water", "setting": "[2]; at ~20° C.", "result": "0.7 g of compound in 100 g of water"}]}, {"smiles": "C/C=C/C=C/C(=O)O", "note": "[sorbic acid]", "values": [{"measurement": "Vapor Pressure", "setting": "[1]", "result": 0.018, "unit": "Pa"}, {"measurement": "Solubility in water", "setting": "[2]; at ~20° C.", "result": "0.156 g of compound in 100 g of water"}]}, {"smiles": "NCC(=O)O", "note": "[glycine]", "values": [{"measurement": "Vapor Pressure", "setting": "[1]", "result": 0.000017, "unit": "Pa"}]}]}
